Values quoted from earlier work, collected in patent US20080066744A1, “PROCESS FOR PRODUCING METERED DOSE INHALER FORMULATIONS” (Schering Corporation, priority 2002, published 2008).
Where two headings read alike, the source gives them in different places.

Compound | solubility (in acetone) | solubility (in chloroform) | solubility (in ethanol) | solubility (in isopropanol) | solubility (in methanol) | solubility (in tetrahydrofuran) | solubility (in water)
C[C@@H]1C[C@H]2[C@@H]3CCC4=CC(=O)C=C[C@]4(C)[C@@]3(Cl)[C@@H](O)C[C@]2(C)[C@@]1(OC(=O)c1ccco1)C(=O)CCl [Mometasone furoate, 9,21-Dichloro-11(beta), 17-dihydroxy-16(alpha)-methylpregna-1,4-diene-3,20-dione 17-(2 furoate)] | soluble | soluble | slightly soluble | slightly soluble | slightly soluble | freely soluble | practically insoluble
(alpha) ^1[(tert-Butylamino)methyl]4-hydroxy-m-xylene-(alpha),(alpha)′-diol sulfate (2:1)(salt) [Albuterol sulfate] | – | – | slightly soluble | – | – | – | soluble
